Assay: recombinant UMI read abundance after kanamycin selection (control-corrected) (log10(CPM+1)); higher = more efficient recombination; extreme values may be limits of the assay; sequences stand for … in AGTGCAGAGAAAATCGGCCAGTTTTCTCTGCCTGCAGTCCGCATGCCGTGGGACCCCTTGGGTTCTAACCTGTTGCCTAGATTTATGCAGCGGACTGCCTTTCTCCCAAAGTGATAAACCGG…AGGTTGGTTTCACT; site = the 11-nt donor
Method in brief: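 In Escherichia coli, a pool of donor and donor-binding-loop pairs, each with a 12-nt UMI, was tested for the IS621 bridge recombinase. Plating was on IPTG (0.07 mM) plus kanamycin, or without selection, in two replicates. Recombinant UMIs were amplified by PCR across the donor–target junction and sequenced, and counts were reported as log10(CPM+1) after averaging and control-derived scaling.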
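Also: IS621 bridge recombinase in Escherichia coli cells against a fixed T5 target plasmid.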

Sequence | recombinant UMI read abundance (log10)
AGCCTCGCATGGACCGGTTTTCCCGGTAATCCGTATTTGTT (site AGCCTGGCTAA) | 0.00929
AGCCTCGCATGGACCGGTTTTCCCGGTAATCCGTATTTGTT (site AGCCTTGCTAA) | 0.0107
AGCCTTGCATGGACCGGTTTTCCCGGTAATCCGTATTTGAC (site AGCCTTACTGT) | 0
AGCCTTGCATGGACCGGTTTTCCCGGTAATCCGTATTTGAC (site AGCCTTCCTGT) | 0
AGCCTTGCATGGACCGGTTTTCCCGGTAATCCGTATTTGAC (site AGCCTTGCTGT) | 1.36
AGCCTTGCATGGACCGGTTTTCCCGGTAATCCGTATTTGAC (site AGCCTTTCTGT) | 0
AGCCTTTCATGGACCGGTTTTCCCGGTAATCCGTATTTGTC (site AGCCTTTCTGA) | 0
AGCCTTTCATGGACCGGTTTTCCCGGTAATCCGTATTTGTC (site AGCCTTTCTGC) | 0
AGCCTTTCATGGACCGGTTTTCCCGGTAATCCGTATTTGTC (site AGCCTTTCTGG) | 0
AGCCTTTCATGGACCGGTTTTCCCGGTAATCCGTATTTGTC (site AGCCTTTCTGT) | 0.00535
AGCGAGTCATGGACCGGTTTTCCCGGTAATCCGTATTTGAT (site AGCGAGTCTAT) | 2.73
AGCTAACCATGGACCGGTTTTCCCGGTAATCCGTATTTGCA (site AGCTAACCTTG) | 0
AGCTAGTCATGGACCGGTTTTCCCGGTAATCCGTATTTGAG (site AGCTAGTCTCT) | 2.57
AGCTATACATGGACCGGTTTTCCCGGTAATCCGTATTTGAC (site AACTATACTGT) | 0.393
AGCTATACATGGACCGGTTTTCCCGGTAATCCGTATTTGAC (site ACCTATACTGT) | 0.726
AGCTATACATGGACCGGTTTTCCCGGTAATCCGTATTTGAC (site AGCTATACTGT) | 2.03
AGCTATACATGGACCGGTTTTCCCGGTAATCCGTATTTGAC (site ATCTATACTGT) | 1.85
AGCTCATCATGGACCGGTTTTCCCGGTAATCCGTATTTGGG (site AGCTCAACTCC) | 0
AGCTCATCATGGACCGGTTTTCCCGGTAATCCGTATTTGGG (site AGCTCACCTCC) | 0.0192
AGCTCATCATGGACCGGTTTTCCCGGTAATCCGTATTTGGG (site AGCTCAGCTCC) | 0.0292
AGCTCATCATGGACCGGTTTTCCCGGTAATCCGTATTTGGG (site AGCTCATCTCC) | 0.833
AGCTCCCCATGGACCGGTTTTCCCGGTAATCCGTATTTGGG (site AGCTCCCCTCC) | 0.111
AGCTGAGCATGGACCGGTTTTCCCGGTAATCCGTATTTGGG (site AGCTAAGCTCC) | 0.0048
AGCTGAGCATGGACCGGTTTTCCCGGTAATCCGTATTTGGG (site AGCTCAGCTCC) | 0
AGCTGAGCATGGACCGGTTTTCCCGGTAATCCGTATTTGGG (site AGCTGAGCTCC) | 0.385

Sequence | recombinant UMI read abundance (log10)
AGCTGAGCATGGACCGGTTTTCCCGGTAATCCGTATTTGGG (site AGCTTAGCTCC) | 0.0451
AGCTGCGCATGGACCGGTTTTCCCGGTAATCCGTATTTGAA (site AGCTGCGCTTT) | 1.4
AGCTTCGCATGGACCGGTTTTCCCGGTAATCCGTATTTGAC (site AGCTTCGCTGT) | 1.58
AGCTTTTCATGGACCGGTTTTCCCGGTAATCCGTATTTGAC (site AGCATTTCTGT) | 0
AGCTTTTCATGGACCGGTTTTCCCGGTAATCCGTATTTGAC (site AGCCTTTCTGT) | 0
AGCTTTTCATGGACCGGTTTTCCCGGTAATCCGTATTTGAC (site AGCGTTTCTGT) | 0
AGCTTTTCATGGACCGGTTTTCCCGGTAATCCGTATTTGAC (site AGCTTTTCTGT) | 0.00446
AGGAAAACATGGACCGGTTTTCCCGGTAATCCGTATTTGCG (site AGGAAAACTCG) | 1.5
AGGAAAACATGGACCGGTTTTCCCGGTAATCCGTATTTGCG (site AGGAAGACTTG) | 0
AGGAAAACATGGACCGGTTTTCCCGGTAATCCGTATTTGGG (site AGGAAAACTCC) | 0.592
AGGAACACATGGACCGGTTTTCCCGGTAATCCGTATTTGCC (site AGGAACACTGG) | 3.08
AGGAACACATGGACCGGTTTTCCCGGTAATCCGTATTTGCC (site AGGAAGACTTG) | 0
AGGAAGACATGGACCGGTTTTCCCGGTAATCCGTATTTGCT (site AGGAAGACTAG) | 2.25
AGGAAGACATGGACCGGTTTTCCCGGTAATCCGTATTTGCT (site AGGAAGACTCG) | 0.519
AGGAAGACATGGACCGGTTTTCCCGGTAATCCGTATTTGCT (site AGGAAGACTGG) | 0
AGGAAGACATGGACCGGTTTTCCCGGTAATCCGTATTTGCT (site AGGAAGACTTG) | 1.46
AGGAAGACATGGACCGGTTTTCCCGGTAATCCGTATTTGGA (site AGGAAGACTTA) | 1.71
AGGAAGACATGGACCGGTTTTCCCGGTAATCCGTATTTGGA (site AGGAAGACTTC) | 2.32
AGGAAGACATGGACCGGTTTTCCCGGTAATCCGTATTTGGA (site AGGAAGACTTG) | 1.04
AGGAAGACATGGACCGGTTTTCCCGGTAATCCGTATTTGGA (site AGGAAGACTTT) | 1.63
AGGAAGACATGGACCGGTTTTCCCGGTAATCCGTATTTGTG (site AGGAAGACTCA) | 2.35
AGGAAGACATGGACCGGTTTTCCCGGTAATCCGTATTTGTG (site AGGAAGACTTG) | 0.492
AGGAAGCCATGGACCGGTTTTCCCGGTAATCCGTATTTGAA (site AGGAAGACTTG) | 0
AGGAAGCCATGGACCGGTTTTCCCGGTAATCCGTATTTGAA (site AGGAAGCCTTT) | 0.308
AGGAAGCCATGGACCGGTTTTCCCGGTAATCCGTATTTGCA (site AGGAAGACTTG) | 0

Sequence | recombinant UMI read abundance (log10)
AGGAAGCCATGGACCGGTTTTCCCGGTAATCCGTATTTGCA (site AGGAAGCCTTG) | 0
AGGAAGCCATGGACCGGTTTTCCCGGTAATCCGTATTTGCA (site AGGAAGGCTTG) | 0
AGGAAGCCATGGACCGGTTTTCCCGGTAATCCGTATTTGCA (site AGGAAGTCTTG) | 0
AGGAAGTCATGGACCGGTTTTCCCGGTAATCCGTATTTGCG (site AGGAAGACTTG) | 0
AGGAAGTCATGGACCGGTTTTCCCGGTAATCCGTATTTGCG (site AGGAAGTCTCG) | 3.16
AGGAAGTCATGGACCGGTTTTCCCGGTAATCCGTATTTGTA (site AGGAAGACTTG) | 0
AGGAAGTCATGGACCGGTTTTCCCGGTAATCCGTATTTGTA (site AGGAAGTCTTA) | 2.97
AGGAATACATGGACCGGTTTTCCCGGTAATCCGTATTTGAC (site AGGAATACTGT) | 1.74
AGGAATACATGGACCGGTTTTCCCGGTAATCCGTATTTGAC (site AGGACTACTGT) | 0.624
AGGAATACATGGACCGGTTTTCCCGGTAATCCGTATTTGAC (site AGGAGTACTGT) | 0
AGGAATACATGGACCGGTTTTCCCGGTAATCCGTATTTGAC (site AGGATTACTGT) | 0
AGGAATACATGGACCGGTTTTCCCGGTAATCCGTATTTGGC (site AGGAATACTGC) | 2.59
AGGAATCCATGGACCGGTTTTCCCGGTAATCCGTATTTGCT (site AGGAATCCTAG) | 0
AGGAATCCATGGACCGGTTTTCCCGGTAATCCGTATTTGCT (site CGGAATCCTAA) | 0.0057
AGGAATCCATGGACCGGTTTTCCCGGTAATCCGTATTTGTT (site AGGAATCCTAA) | 0.74
AGGAATCCATGGACCGGTTTTCCCGGTAATCCGTATTTGTT (site CGGAATCCTAA) | 0.0029
AGGAATCCATGGACCGGTTTTCCCGGTAATCCGTATTTGTT (site GGGAATCCTAA) | 0
AGGAATCCATGGACCGGTTTTCCCGGTAATCCGTATTTGTT (site TGGAATCCTAA) | 0
AGGACCACATGGACCGGTTTTCCCGGTAATCCGTATTTGAC (site AGGACAACTGT) | 0.0127
AGGACCACATGGACCGGTTTTCCCGGTAATCCGTATTTGAC (site AGGACCACTGT) | 2.79
AGGACCACATGGACCGGTTTTCCCGGTAATCCGTATTTGAC (site AGGACGACTGT) | 0
AGGACCACATGGACCGGTTTTCCCGGTAATCCGTATTTGAC (site AGGACTACTGT) | 0
AGGATCCCATGGACCGGTTTTCCCGGTAATCCGTATTTGTG (site AGGATCCCTCA) | 0.753
AGGATCCCATGGACCGGTTTTCCCGGTAATCCGTATTTGTG (site AGGCTCCCTCA) | 0.00372
AGGATCCCATGGACCGGTTTTCCCGGTAATCCGTATTTGTG (site AGGGTCCCTCA) | 0.00264
